In ChEMBL document CHEMBL4765365, “Design, synthesis and antitumour evaluation of pyrrolo[1,2-f]-phenanthridine and dibenzo[f,h]pyrrolo[1,2-b]isoquinoline derivatives” (Eur J Med Chem, 2020):

Legend:
HCT-116 [1] = assay: Induction of cell cycle arrest in human HCT-116 cells assessed as S phase at 1.5 uM incubated for 24 hrs by PI staining based flow cytometry analysis (reference value: 21.2 +/- 5.4 %); format: functional
HCT-116 [2] = assay: Induction of cell cycle arrest in human HCT-116 cells assessed as S phase at 0.375 uM measured at 0 hrs by PI staining based flow cytometry analysis (reference value: 12.4 +/- 6.2 %); format: functional
NCI-H460 [3] = assay: Induction of cell cycle arrest in human NCI-H460 cells assessed as S phase at 1.5 uM incubated for 24 hrs by PI staining based flow cytometry analysis (reference value: 11.7 +/- 6.1 %); format: functional
NCI-H460 [4] = assay: Induction of cell cycle arrest in human NCI-H460 cells assessed as S phase at 1.5 uM measured at 0 hrs by PI staining based flow cytometry analysis (reference value: 12.2 +/- 2.8 %); format: functional
NCI-H460 [5] = assay: Induction of cell cycle arrest in human NCI-H460 cells assessed as G2/M phase at 0.75 uM incubated for 36 hrs by PI staining based flow cytometry analysis (reference value: 25 +/- 1.2 %); format: functional
HCT-116 [6] = assay: Induction of cell cycle arrest in human HCT-116 cells assessed as S phase at 0.375 uM incubated for 12 hrs by PI staining based flow cytometry analysis (reference value: 15.5 +/- 0.2 %); format: functional
HCT-116 [7] = assay: Induction of cell cycle arrest in human HCT-116 cells assessed as G1 phase at 0.375 uM incubated for 24 hrs by PI staining based flow cytometry analysis (reference value: 55 +/- 9.8 %); format: functional
HCT-116 [8] = assay: Induction of cell cycle arrest in human HCT-116 cells assessed as G0 phase at 0.75 uM incubated for 12 hrs by PI staining based flow cytometry analysis (reference value: 2.2 +/- 1.7 %); format: functional
HCT-116 [9] = assay: Induction of cell cycle arrest in human HCT-116 cells assessed as G2/M phase at 1.5 uM incubated for 36 hrs by PI staining based flow cytometry analysis (reference value: 23.6 +/- 1 %); format: functional
NCI-H460 [10] = assay: Induction of cell cycle arrest in human NCI-H460 cells assessed as G1 phase at 0.75 uM incubated for 12 hrs by PI staining based flow cytometry analysis (reference value: 66 +/- 10 %); format: functional
NCI-H460 [11] = assay: Induction of cell cycle arrest in human NCI-H460 cells assessed as G2/M phase at 0.75 uM measured at 0 hrs by PI staining based flow cytometry analysis (reference value: 25.2 +/- 4 %); format: functional
NCI-H460 [12] = assay: Induction of apoptosis in human NCI-H460 cells assessed as viable cells at 1.5 uM incubated for 48 hrs by annexin V-FITC and PI staining based flow cytometry analysis (reference value: 90.1 %); format: functional; conditions: read-out: Activity
HCT-116 [13] = assay: Induction of cell cycle arrest in human HCT-116 cells assessed as G0 phase at 1.5 uM measured at 0 hrs by PI staining based flow cytometry analysis (reference value: 0.7 +/- 0.2 %); format: functional
HCT-116 [14] = assay: Induction of cell cycle arrest in human HCT-116 cells assessed as S phase at 0.75 uM incubated for 36 hrs by PI staining based flow cytometry analysis (reference value: 7.9 +/- 3.7 %); format: functional
NCI-H460 [15] = assay: Induction of cell cycle arrest in human NCI-H460 cells assessed as S phase at 0.75 uM incubated for 36 hrs by PI staining based flow cytometry analysis (reference value: 7.6 +/- 3.9 %); format: functional
NCI-H460 [16] = assay: Induction of cell cycle arrest in human NCI-H460 cells assessed as S phase at 0.75 uM incubated for 24 hrs by PI staining based flow cytometry analysis (reference value: 11.7 +/- 6.1 %); format: functional
NCI-H460 [17] = assay: Induction of cell cycle arrest in human NCI-H460 cells assessed as G1 phase at 1.5 uM measured at 0 hrs by PI staining based flow cytometry analysis (reference value: 53.4 +/- 4.8 %); format: functional
HCT-116 [18] = assay: Induction of cell cycle arrest in human HCT-116 cells assessed as G1 phase at 0.75 uM measured at 0 hrs by PI staining based flow cytometry analysis (reference value: 52 +/- 5.1 %); format: functional
HCT-116 [19] = assay: Cytotoxicity against human HCT-116 cells assessed as reduction in cell viability incubated for 72 hrs by XTT assay; format: functional, cell-based; conditions: HCT-116, 72 h
NCI-H460 [20] = assay: Induction of apoptosis in human NCI-H460 cells assessed as late apoptotic cells at 6 uM incubated for 48 hrs by annexin V-FITC and PI staining based flow cytometry analysis (reference value: 7.3 %); format: functional
HCT-116 [21] = assay: Induction of cell cycle arrest in human HCT-116 cells assessed as G0 phase at 0.75 uM incubated for 24 hrs by PI staining based flow cytometry analysis (reference value: 12.5 +/- 5.4 %); format: functional
NCI-H460 [22] = assay: Induction of cell cycle arrest in human NCI-H460 cells assessed as G1 phase at 0.75 uM incubated for 24 hrs by PI staining based flow cytometry analysis (reference value: 56.8 +/- 7.6 %); format: functional
NCI-H460 [23] = assay: Induction of cell cycle arrest in human NCI-H460 cells assessed as G0 phase at 1.5 uM incubated for 24 hrs by PI staining based flow cytometry analysis (reference value: 1.6 +/- 0.6 %); format: functional
NCI-H460 [24] = assay: Induction of cell cycle arrest in human NCI-H460 cells assessed as G1 phase at 3 uM incubated for 12 hrs by PI staining based flow cytometry analysis (reference value: 66 +/- 10 %); format: functional
NCI-H460 [25] = assay: Induction of apoptosis in human NCI-H460 cells assessed as viable cells at 6 uM incubated for 48 hrs by annexin V-FITC and PI staining based flow cytometry analysis (reference value: 90.1 %); format: functional; conditions: read-out: Activity

`OCc1cn2c3ccccc3c3ccccc3c2c1CO` was tested, and the Activity (HCT-116 [1]) was 5.7%, the Activity (HCT-116 [2]) was 12.4% and the Activity (NCI-H460 [3]) was 8.6%. The Activity (NCI-H460 [4]) was 12%, the Activity (NCI-H460 [5]) was 20.9% and the Activity (HCT-116 [6]) was 16.9%. The Activity (HCT-116 [7]) was 46.7%, the Activity (HCT-116 [8]) was 1.7% and the Activity (HCT-116 [9]) was 20.7%. It also gave an Activity (NCI-H460 [10]) of 53%, an Activity (NCI-H460 [11]) of 24.2% and a viability at 1.5 µM (NCI-H460 [12]) of 82.2%. It also gave an Activity (HCT-116 [13]) of 2.2%, an Activity (HCT-116 [14]) of 5.1% and an Activity (NCI-H460 [15]) of 6.3%. It also gave an Activity (NCI-H460 [16]) of 11%, an Activity (NCI-H460 [17]) of 55.5% and an Activity (HCT-116 [18]) of 52%. The IC50 (HCT-116 [19]) was 1120 nM, the Activity (NCI-H460 [20]) was 55.8% and the Activity (HCT-116 [21]) was 2.7%. It also gave an Activity (NCI-H460 [22]) of 54%, an Activity (NCI-H460 [23]) of 2.8% and an Activity (NCI-H460 [24]) of 53.3%. For the same molecule, the viability at 6 µM (NCI-H460 [25]) was 13.4%.
